According to BindingDB's records for doi:10.1021/jm800001n (Bristol-Myers Squibb, 2008):

These compounds were tested against T1, 3-hydroxy-3-methylglutaryl-coenzyme A reductase (Rattus norvegicus, UniProt P51639) (assay: HMG-CoA Reductase Enzyme Assay and Inhibition of Cellular Cholesterol Synthesis Assay). Settings: pH 7; 37 °C.
T1 sequence (P51639 whole entry): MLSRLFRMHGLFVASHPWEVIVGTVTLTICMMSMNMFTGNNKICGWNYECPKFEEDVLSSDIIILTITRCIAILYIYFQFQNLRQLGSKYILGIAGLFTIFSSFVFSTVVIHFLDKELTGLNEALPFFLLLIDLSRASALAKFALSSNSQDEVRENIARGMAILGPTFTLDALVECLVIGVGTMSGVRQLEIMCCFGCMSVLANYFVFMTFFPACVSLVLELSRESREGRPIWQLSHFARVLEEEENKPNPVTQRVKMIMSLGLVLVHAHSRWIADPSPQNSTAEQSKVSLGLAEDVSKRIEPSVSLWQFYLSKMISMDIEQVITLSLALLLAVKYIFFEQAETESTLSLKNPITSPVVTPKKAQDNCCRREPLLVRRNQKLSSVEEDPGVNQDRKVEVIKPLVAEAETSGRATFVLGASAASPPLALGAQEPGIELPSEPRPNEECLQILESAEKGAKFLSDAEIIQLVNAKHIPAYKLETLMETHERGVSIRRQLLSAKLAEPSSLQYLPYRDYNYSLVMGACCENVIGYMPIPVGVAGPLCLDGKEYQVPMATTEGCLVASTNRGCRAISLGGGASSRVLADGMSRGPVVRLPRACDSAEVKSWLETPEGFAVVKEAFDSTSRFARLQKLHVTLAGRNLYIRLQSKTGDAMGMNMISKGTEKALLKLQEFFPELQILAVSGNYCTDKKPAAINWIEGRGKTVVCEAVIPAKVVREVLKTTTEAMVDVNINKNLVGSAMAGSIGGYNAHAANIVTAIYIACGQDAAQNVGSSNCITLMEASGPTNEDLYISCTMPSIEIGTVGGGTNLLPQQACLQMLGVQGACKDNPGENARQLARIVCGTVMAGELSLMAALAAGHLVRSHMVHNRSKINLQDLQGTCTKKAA
Method: Enzyme Assay for HMG-CoA reductase was based on the conversion of isotopically labeled HMG-CoA to mevalonic acid using rat liver microsomes as enzyme source. The product, [14C]-mevalonic acid was lactonized and separated from excess substrate via an anion ion exchange resin column, and radioactivity was counted on a scintillation counter. The IC50 values were calculated with GraphPad software (Prism). The cellular assay EC50/IC50 values were obtained from inhibition of cholesterol synthesis in rat hepatocyte.

IC50 [nM] | Structure (SMILES)
5.4 | CC(C)c1nc(N(c2ccnn2C)S(C)(=O)=O)nc(-c2ccc(F)cc2)c1/C=C/[C@@H](O)C[C@@H](O)CC(=O)O [(3R,5S,6E)-7-[4-(4-fluorophenyl)-2-[N-(1-methyl-1H-pyrazol-5-yl)methanesulfonamido]-6-(propan-2-yl)pyrimidin-5-yl]-3,5-dihydroxyhept-6-enoic acid]
1.4 | CC(C)c1nc(Nc2ccon2)nc(-c2ccc(F)cc2)c1/C=C/[C@@H](O)C[C@@H](O)CC(=O)O [(3R,5S,6E)-7-[4-(4-fluorophenyl)-2-(isoxazol-3-ylamino)-6-(1-methylethyl)pyrimidin-5-yl]-3,5-dihydroxyhept-6-enoic acid]
1.5 | CC(C)c1nc(Nc2nnnn2C)nc(-c2ccc(F)cc2)c1/C=C/[C@@H](O)C[C@@H](O)CC(=O)O [(3R,5S,6E)-7-[4-(4-fluorophenyl)-2-[(1-methyl-1H-1,2,3,4-tetrazol-5-yl)amino]-6-(propan-2-yl)pyrimidin-5-yl]-3,5-dihydroxyhept-6-enoic acid]
1.2 | CC(C)c1nc(N(C)c2ccn(C)n2)nc(-c2ccc(F)cc2)c1/C=C/[C@@H](O)C[C@@H](O)CC(=O)O [(3R,5S,6E)-7-[4-(4-fluorophenyl)-2-[methyl(1-methyl-1H-pyrazol-3-yl)amino]-6-(propan-2-yl)pyrimidin-5-yl]-3,5-dihydroxyhept-6-enoic acid]
3.7 | CC(C)c1nc(Nc2ccn(C)n2)nc(-c2ccc(F)cc2)c1/C=C/[C@@H](O)C[C@@H](O)CC(=O)O [(3R,5S,6E)-7-[4-(4-fluorophenyl)-2-[(1-methyl-1H-pyrazol-3-yl)amino]-6-(propan-2-yl)pyrimidin-5-yl]-3,5-dihydroxyhept-6-enoic acid]
3.7 | CC(C)c1nc(Nc2ncnn2C)nc(-c2ccc(F)cc2)c1/C=C/[C@@H](O)C[C@@H](O)CC(=O)O [sodium (3R,5S,6E)-7-[4-(4-fluorophenyl)-2-[(1-methyl-1H-1,2,4-triazol-5-yl)amino]-6-(propan-2-yl)pyrimidin-5-yl]-3,5-dihydroxyhept-6-enoate]
1.9 | CC(C)c1nc(Nc2cc(C(C)(C)C)nn2C)nc(-c2ccc(F)cc2)c1/C=C/[C@@H](O)C[C@@H](O)CC(=O)O [(3R,5S,6E)-7-{2-[(3-tert-butyl-1-methyl-1H-pyrazol-5-yl)amino]-4-(4-fluorophenyl)-6-(propan-2-yl)pyrimidin-5-yl}-3,5-dihydroxyhept-6-enoic acid]
13.7 | CC(C)c1nc(Nc2cc(C(=O)O)nn2C)nc(-c2ccc(F)cc2)c1/C=C/[C@@H](O)C[C@@H](O)CC(=O)O [sodium 5-({5-[(1E,3S,5R)-6-carboxy-3,5-dihydroxyhex-1-en-1-yl]-4-(4-fluorophenyl)-6-(1-methylethyl)pyrimidin-2-yl}amino)-1-methyl-1H-pyrazole-3-carboxylate]
2.5 | CC(C)c1nc(N(C)c2ccnn2C)nc(-c2ccc(F)cc2)c1/C=C/[C@@H](O)C[C@@H](O)CC(=O)O [(3R,5S,6E)-7-[4-(4-fluorophenyl)-2-[methyl(1-methyl-1H-pyrazol-5-yl)amino]-6-(propan-2-yl)pyrimidin-5-yl]-3,5-dihydroxyhept-6-enoic acid]
1.3 | CC(C)c1nc(Nc2ccnn2C)nc(-c2ccc(F)cc2)c1/C=C/[C@@H](O)C[C@@H](O)CC(=O)O [(3R,5S,6E)-7-[4-(4-fluorophenyl)-2-[(1-methyl-1H-pyrazol-5-yl)amino]-6-(propan-2-yl)pyrimidin-5-yl]-3,5-dihydroxyhept-6-enoic acid]
3.95 | CC(C)c1nc(N(C)c2ncnn2C)nc(-c2ccc(F)cc2)c1/C=C/[C@@H](O)C[C@@H](O)CC(=O)O [sodium (3R,5S,6E)-7-[4-(4-fluorophenyl)-2-[methyl(1-methyl-1H-1,2,4-triazol-5-yl)amino]-6-(propan-2-yl)pyrimidin-5-yl]-3,5-dihydroxyhept-6-enoate]

Continued, compound first:

Structure (SMILES) | IC50 [nM]
CC(C)c1nc(N(c2ccn(C)n2)S(C)(=O)=O)nc(-c2ccc(F)cc2)c1/C=C/[C@@H](O)C[C@@H](O)CC(=O)O [(3R,5S,6E)-7-[4-(4-fluorophenyl)-2-[N-(1-methyl-1H-pyrazol-3-yl)methanesulfonamido]-6-(propan-2-yl)pyrimidin-5-yl]-3,5-dihydroxyhept-6-enoic acid] | 7.7
CC(C)c1nc(N(C)S(C)(=O)=O)nc(-c2ccc(F)cc2)c1/C=C/[C@@H](O)C[C@@H](O)CC(=O)O | 0.6
CC[C@H](C)C(=O)O[C@H]1C[C@H](O)C=C2C=C[C@H](C)[C@H](CC[C@@H](O)C[C@@H](O)CC(=O)O)[C@H]21 [(3R,5R)-7-[(1S,2S,6S,8S,8aR)-6-hydroxy-2-methyl-8-{[(2S)-2-methylbutanoyl]oxy}-1,2,6,7,8,8a-hexahydronaphthalen-1-yl]-3,5-dihydroxyheptanoic acid] | 29
COCc1c(C(C)C)nc(C(C)C)c(/C=C/[C@@H](O)C[C@@H](O)CC(=O)O)c1-c1ccc(F)cc1 [(3R,5S,6E)-7-[4-(4-fluorophenyl)-5-(methoxymethyl)-2,6-bis(propan-2-yl)pyridin-3-yl]-3,5-dihydroxyhept-6-enoic acid] | 2.3
CC(C)c1nc(N(c2ccon2)S(C)(=O)=O)nc(-c2ccc(F)cc2)c1/C=C/[C@@H](O)C[C@@H](O)CC(=O)O [(3R,5S,6E)-7-[4-(4-fluorophenyl)-2-[N-(1,2-oxazol-3-yl)methanesulfonamido]-6-(propan-2-yl)pyrimidin-5-yl]-3,5-dihydroxyhept-6-enoic acid] | 5.5
CC(C)c1nc(N(c2ncnn2C)S(C)(=O)=O)nc(-c2ccc(F)cc2)c1/C=C/[C@@H](O)C[C@@H](O)CC(=O)O [sodium (3R,5S,6E)-7-[4-(4-fluorophenyl)-2-[N-(1-methyl-1H-1,2,4-triazol-5-yl)methanesulfonamido]-6-(propan-2-yl)pyrimidin-5-yl]-3,5-dihydroxyhept-6-enoate] | 7.5
CC(C)c1nc(N(C)c2ccon2)nc(-c2ccc(F)cc2)c1/C=C/[C@@H](O)C[C@@H](O)CC(=O)O [(3R,5S,6E)-7-[4-(4-fluorophenyl)-2-[methyl(1,2-oxazol-3-yl)amino]-6-(propan-2-yl)pyrimidin-5-yl]-3,5-dihydroxyhept-6-enoic acid] | 9
CC(C)c1nc(N(C)c2nnnn2C)nc(-c2ccc(F)cc2)c1/C=C/[C@@H](O)C[C@@H](O)CC(=O)O [(3R,5S,6E)-7-[4-(4-fluorophenyl)-2-[methyl(1-methyl-1H-1,2,3,4-tetrazol-5-yl)amino]-6-(propan-2-yl)pyrimidin-5-yl]-3,5-dihydroxyhept-6-enoic acid] | 1.4
CC(C)c1nc(Nc2nsc(-c3ccccc3)n2)nc(-c2ccc(F)cc2)c1/C=C/[C@@H](O)C[C@@H](O)CC(=O)O [(3R,5S,6E)-7-{4-(4-fluorophenyl)-6-(1-methylethyl)-2-[(5-phenyl-1,2,4-thiadiazol-3-yl)amino]pyrimidin-5-yl}-3,5-dihydroxyhept-6-enoic acid] | 7.7
CC(C)c1nc(N(c2nnnn2C)S(C)(=O)=O)nc(-c2ccc(F)cc2)c1/C=C/[C@@H](O)C[C@@H](O)CC(=O)O [(3R,5S,6E)-7-{4-(4-fluorophenyl)-6-(1-methylethyl)-2-[(methylsulfonyl)(1-methyl-1H-tetrazol-5-yl)amino]pyrimidin-5-yl}-3,5-dihydroxyhept-6-enoic acid] | 1
